Laboratory results from PubChem BioAssay (NCI).
“And” between values parts separate entries of the source, which are not always exact repeats. Identical values can stand only once.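 Compound exposure: 48 hours, 5 concentrations, 96-well plates. Abbreviation: GI50, concentration required for 50% inhibition of growth. TGI marks complete inhibition of growth.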

How the values were obtained:
Assay in all cases: NCI-60 cell line screen, 48 h
TK-10 renal = system: TK-10 renal
HL-60(TB) leukemia = system: HL-60(TB) leukemia
OVCAR-5 ovarian = system: OVCAR-5 ovarian
SK-OV-3 ovarian = system: SK-OV-3 ovarian
HOP-62 NSCLC = system: HOP-62 NSCLC
OVCAR-4 ovarian = system: OVCAR-4 ovarian
SR leukemia = system: SR leukemia
K-562 leukemia = system: K-562 leukemia
MOLT-4 leukemia = system: MOLT-4 leukemia
MCF7 breast = system: MCF7 breast

SMILES	TGI (TK-10 renal) [µM]	TGI (HL-60(TB) leukemia) [µM]	TGI (OVCAR-5 ovarian)	TGI (SK-OV-3 ovarian) [µM]	TGI (HOP-62 NSCLC) [µM]	TGI (OVCAR-4 ovarian)	TGI (SR leukemia)	TGI (K-562 leukemia) [µM]	TGI (MOLT-4 leukemia) [µM]	TGI (MCF7 breast)	GI50 (TK-10 renal) [µM]	GI50 (HL-60(TB) leukemia) [µM]	GI50 (SK-OV-3 ovarian) [µM]	GI50 (MOLT-4 leukemia) [µM]	GI50 (OVCAR-4 ovarian)	GI50 (K-562 leukemia) [µM]	GI50 (OVCAR-5 ovarian) [µM]	GI50 (HOP-62 NSCLC) [µM]	GI50 (MCF7 breast) [µM]	GI50 (SR leukemia) [µM]
C=CCc1ccc(Oc2cc(CC=C)c3c(c2O)O[C@@H](CO)[C@H]3c2ccc(O)c(-c3cc(CC=C)ccc3O)c2)cc1	> 100	55.3	> 100 µM	> 100	> 100	> 100 µM	46.9 µM	> 100	–	–	–	–	–	–	–	–	–	–	–	–
CCN(CC)c1ccc(N=Nc2ccc(-c3nc4ccc[n+](C)c4s3)cc2)cc1	34.5	–	31.1 µM	38.1	38.9	20 µM	53.7 µM	> 100	24.6	–	–	–	–	–	–	–	–	–	–	–
COc1cc(/C=C/c2ccc(OC)c(OC)c2)cc(OC)c1	> 100	–	> 100 µM	> 100	> 100	> 100 µM	> 100 µM	> 100	> 100	> 100 µM	–	–	–	–	–	–	–	–	–	–
O=C1/C(=C/c2cccc([N+](=O)[O-])c2)COc2ccc(Br)cc21	> 100	58	> 100 µM	> 100	> 100	–	–	> 100	96	–	–	–	–	–	–	–	–	–	–	–
CSC(C1c2ccccc2N(c2ccc(C)cc2)c2[nH]c(=O)n(C)c(=O)c21)S(=O)(=O)c1ccc(C)cc1 (configuration not stated)	> 100	> 100	> 100 µM	> 100	> 100	> 100 µM	–	> 100	> 100	–	–	–	–	–	–	–	–	–	–	–
O=C(c1ccccc1)C1OC12C(=O)Nc1ccccc12 (configuration not stated)	> 100	9.73	> 100 µM	> 100	> 100	> 100 µM	–	24.3	34.1	–	–	–	–	–	–	–	–	–	–	–
O=C1NC2OC(C(O)CO)C(O)C2O1 (configuration not stated)	> 100	> 100	> 100 µM	> 100	–	> 100 µM	> 100 µM	> 100	> 100	–	–	–	–	–	–	–	–	–	–	–
N#CC1CC2(C1)OCCS2 (configuration not stated)	> 100	> 100	> 100 µM	–	> 100	> 100 µM	> 100 µM	> 100	> 100	–	–	–	–	–	–	–	–	–	–	–
NC(=O)NCc1c(C(N)=O)ncn1Cc1ccccc1	> 100	> 100	–	> 100	> 100	> 100 µM	–	> 100	> 100	–	–	–	–	–	–	–	–	–	–	–
C1C[OH+]CC[OH+]CC[OH+]CC[OH+]CC[OH+]1.[Cl-].[V]	> 100	> 100	–	> 100	–	41.6 µM	–	> 100	> 100	–	83.5	> 100	67.8	> 100	6.03 µM	> 100	–	–	–	–
O=C1OC2CCCC[C@@H]2C2C[C@]34CCCCC3[C@@H](C(=O)O4)C12 (some centres not stated)	> 100	–	> 100 µM	> 100	> 100	> 100 µM	–	> 100	> 100	–	–	–	–	–	–	–	–	–	–	–
Cc1ccc(-c2nc3ccc(Cl)cc3c(=O)n2N2C(=O)CSC2c2ccccc2Cl)cc1 (configuration not stated)	–	–	> 100 µM	9.9	5.09	> 100 µM	> 100 µM	> 100	> 100	> 100 µM	–	–	2.89	> 100	4.54 µM	> 100	> 100	1.98	26.9	> 100
Cc1c(C(=O)/C=C/c2ccccc2)[n+](=O)c2ccccc2n1[O-]	51.1	40.7	30.7 µM	42.7	37.9	33 µM	66 µM	51.9	54.6	–	–	–	–	–	–	–	–	–	–	–
COc1ccc2nc(NC(=O)C(=O)C(C#N)c3ccc([N+](=O)[O-])cc3)sc2c1 (configuration not stated)	> 100	–	> 100 µM	> 100	> 100	> 100 µM	–	> 100	> 100	–	–	–	–	–	–	–	–	–	–	–
Nc1ccc2cc3ccc(N)cc3nc2c1	–	–	4.98 µM and 30.1 µM and 28.6 µM	–	–	4.23 µM [middle of 4 runs]	14.1 µM and 2.1 µM and 6.96 µM	–	–	7.19 µM and 22.6 µM and 14.5 µM	0.513	–	–	–	1.21 µM [middle of 4 runs]	–	1.97	0.795	0.52	–
O=C1CSC(/C(=N/Nc2ccccc2)c2nc3ccccc3[nH]2)=N1	> 100	> 100	> 100 µM	73.5	67.3	> 100 µM	31.1 µM	> 100	–	–	–	–	–	–	–	–	–	–	–	–
Nc1ccc(-c2nc3ccc(Cc4ccc5nc(-c6ccc(N)cc6)[nH]c5c4)cc3[nH]2)cc1	43.3	36.9	30 µM	40.6	35	–	> 100 µM	–	–	–	24.4	10.4	18.9	–	–	–	12	6.53	–	1.48
N#Cc1cccnc1Cl	> 100	> 100	> 100 µM	> 100	> 31.6	> 100 µM	> 100 µM	> 100	> 100	–	–	–	–	–	–	–	–	–	–	–
C[C@H](O)C(=O)N1CCC(CCn2c(Sc3cc4c(cc3Br)OCO4)nc3c(N)ncnc32)CC1	> 100	14.5	> 100 µM	> 100	> 100	> 100 µM	–	> 100	11.8	> 100 µM	1.3	0.409	0.48	0.55	> 20.1 µM	0.472	2.74	1.73	0.368	–
CN(CCC#N)c1ccc(/C=C(\C#N)c2ccc(Br)cc2)cc1	> 100	> 100	> 100 µM	> 100	–	> 100 µM	–	> 100	–	> 100 µM	> 100	4.43	> 100	–	> 100 µM	3.5	> 100	–	4.05	–
OCc1ccc(C2CC(c3ccco3)=NN2c2ccccc2)o1 (configuration not stated)	> 100	> 100	> 100 µM	–	> 100	> 100 µM	> 100 µM	> 100	> 100	–	–	–	–	–	–	–	–	–	–	–

SMILES	TGI (TK-10 renal) [µM]	TGI (HL-60(TB) leukemia) [µM]	TGI (OVCAR-5 ovarian)	TGI (SK-OV-3 ovarian) [µM]	TGI (HOP-62 NSCLC) [µM]	TGI (OVCAR-4 ovarian)	TGI (SR leukemia)	TGI (K-562 leukemia) [µM]	TGI (MOLT-4 leukemia) [µM]	TGI (MCF7 breast)	GI50 (TK-10 renal) [µM]	GI50 (HL-60(TB) leukemia) [µM]	GI50 (SK-OV-3 ovarian) [µM]	GI50 (MOLT-4 leukemia) [µM]	GI50 (OVCAR-4 ovarian)	GI50 (K-562 leukemia) [µM]	GI50 (OVCAR-5 ovarian) [µM]	GI50 (HOP-62 NSCLC) [µM]	GI50 (MCF7 breast) [µM]	GI50 (SR leukemia) [µM]
S=C1OC2CCCC[C@H]2O1 (some centres not stated)	> 100	> 100	> 100 µM	> 100	> 100	> 100 µM	> 100 µM	> 100	> 100	–	–	–	–	–	–	–	–	–	–	–
O=C1CCCC[C@H]1[C@H]1CCC[C@@H]([C@H]2CCCCC2=O)C1=O	> 100	> 100	> 100 µM	> 100	> 100	> 100 µM	> 100 µM	> 100	> 100	–	–	–	–	–	–	–	–	–	–	–
C#Cc1c(I)n(C2OC(CO[Si](C)(C)C(C)(C)C)C3OC(C)(C)OC32)c(=O)[nH]c1=O (configuration not stated)	26.5	–	37 µM	> 100	38.4	37.6 µM	12.8 µM	5.37	6.69	50 µM	11.2	–	33.2	2.17	17.8 µM	2.08	20.4	20	16.6	2.62
O=C(NCO)NCOCn1c(=O)n(CO)c(=O)n(CO)c1=O	> 100	47.5	> 100 µM	> 100	> 100	> 77 µM	81.9 µM	> 79.2	> 65.9	–	–	–	–	–	–	–	–	–	–	–
O=c1c2ccccc2c(=O)c2c1[nH]c1c(-c3ccccc3)c(-c3ccccc3)c(=O)c12	52.3	–	14.7 µM	–	9.15	> 100 µM	13.5 µM	> 100	13.3	> 100 µM	4.84	–	–	1.92	6.43 µM	3.68	4.27	3.28	2.48	2.15
Cc1ccc(S(=O)(=O)C(C#N)c2nc3ccccc3nc2-n2ccnc2)cc1 (configuration not stated)	> 100	> 100	> 100 µM	> 100	> 100	> 100 µM	–	> 100	> 100	–	–	–	–	–	–	–	–	–	–	–
COc1ccc(OC)c2c(C(=O)O)c(Cc3ccccc3)ccc12	> 100	> 100	> 100 µM	> 100	> 100	> 100 µM	> 100 µM	> 100	> 100	–	–	–	–	–	–	–	–	–	–	–
O=C1CC2CCCC23CC2(CCN13)OCCO2 (configuration not stated)	> 100	> 100	> 100 µM	> 100	> 100	> 100 µM	> 100 µM	> 100	> 100	–	–	–	–	–	–	–	–	–	–	–
Clc1ccc2c(c1)-c1c3c(nn1-c1ccccc1)-c1ccccc1SC3O2 (configuration not stated)	> 100	> 100	> 100 µM	> 100	> 100	–	–	> 100	> 100	–	–	–	–	–	–	–	–	–	–	–
C1CCC([PH+](C2CCCCC2)C2CCCCC2[PH+](C2CCCCC2)C2CCCCC2)CC1.O=C(C1[CH-]CCCC1)C1CCCC[N-]1.[Au] (configuration not stated)	–	0.731	1.53 µM	1.4	2.96	–	> 100 µM	> 100	–	–	–	0.249	0.33	–	–	0.194	0.343	0.323	–	0.329
COc1c(C(C)C)cc2c3c1OC(=O)[C@@]31CCCC(C)(C)C1CC2 (some centres not stated)	99.8	37.4	> 100 µM	76.1	> 100	–	> 100 µM	> 100	> 100	–	–	–	–	–	–	–	–	–	–	–
CC(=O)O[C@]12CCCCCC1C1(O)C(O)CCCC[C@H]12 (some centres not stated)	> 100	> 100	–	> 100	> 100	> 100 µM	> 100 µM	> 100	> 100	–	–	–	–	–	–	–	–	–	–	–
c1ccc(C2Nc3ccccc3C3OCCCC23)cc1 (configuration not stated)	–	51.1	> 100 µM	–	–	> 100 µM	–	> 100	> 100	–	–	–	–	–	–	–	–	–	–	–
COc1cccc(C#Cc2ccccc2C#CCCCCO)c1	29.6	–	29.3 µM	32.5	34.3	44.2 µM	12.1 µM	85.4	53.1	41.1 µM	13.1	–	17.2	3.82	20.4 µM	1.84	14.6	15.5	16.1	1.95
CCn1c(SCc2ccc(C)cc2)nnc1-c1nn(-c2ccc(Cl)cc2Cl)c(-c2ccc(Cl)cc2)c1C	10.9	5.47	15.2 µM	8.18	11.9	12.4 µM	–	10.4	11	11.4 µM	2.61	1.6	2.58	2.15	1.79 µM	0.836	3.54	2.73	2.26	–
O=C(O)[C@H](NS(=O)(=O)c1ccc([N+](=O)[O-])cc1)c1ccccc1	> 100	–	> 100 µM	> 100	> 100	> 100 µM	–	> 100	> 100	–	–	–	–	–	–	–	–	–	–	–
CCOC(=O)c1ccc(C)c(N=NN(C)C)c1	> 100	> 100	> 100 µM	> 100	> 100	> 100 µM	> 100 µM	> 100	> 100	–	–	–	–	–	–	–	–	–	–	–
COc1cccc2c(=O)c3c(sc12)c(N1CCNCC1)nc1ccccc13	3.44	–	3.24 µM	–	4.3	3.62 µM	> 100 µM	–	–	3.28 µM	1.85	–	–	–	1.8 µM	–	1.79	1.87	1.57	0.622
O=C1CCC(O)=C1N=Nc1ccccc1	> 100	> 100	> 100 µM	> 100	> 100	> 100 µM	–	> 100	> 100	–	–	–	–	–	–	–	–	–	–	–
CC(C)(C)c1cc(C(O)(C(F)(F)F)C(F)(F)F)c2c(c1)C(C(F)(F)F)(C(F)(F)F)OC(C(C)(C)C)N2 (configuration not stated)	11.9	–	23.3 µM	5.58	–	18 µM	7.2 µM	11	5.34	–	–	–	–	–	–	–	–	–	–	–
CC(=O)C(=CN1CCN(C(=O)c2ccco2)C1=S)C(C)=O	14.3	> 100	–	43.9	41.7	32.7 µM	> 100 µM	> 100	> 100	–	4.19	5.79	20	8.2	10.6 µM	38.4	–	22	–	2.26
